Data: patent US20260347399A1, “BRAIN PENETRATING PEPTIDES AND METHODS OF USE” (priority 2022, published 2026)
Ends that are not written are not given here.

How the values were obtained:
[1] = tested on: mouse brain; assay: Peptide-phage biodistribution after i.v. injection; type: in vivo
Description: For titering-based biodistribution studies, nucleotide sequences coding for peptides of interest were cloned into T7 phage genomic DNA to be expressed on the phage surface as C-terminal fusions to capsid protein. The cloning was performed using complementary oligonucleotides, the phage clones were amplified, and purified as described in (Põšnograjeva, et al., 2022). 5×10^9 pfu of peptide-phage clone was injected i.v. into male Balb/C mice or 5×10^10 pfu of phage was injected into female Sprague-Dawley rats (n=3). 60 min later, the animals were anesthetized and perfused with PBS. The tissues were collected, homogenized, and the amount of phage in tissue lysates was determined by titering using E. coli strain BLT5615.
A complete listing of peptides that were identified from Ion Torrent high throughput sequencing from bio-panning Round 5 is set forth in Table 1B.
The peptide-phage was injected i.v. and following 1 h circulation, the mice were perfused, brain and control organs were collected and phage titer in each tissue was determined. Insertless T7 phage was used as a negative control and a phage displaying BBB penetrating peptide Angiopep-2 (TFFYGGSRGKRNNFKTEEY; SEQ ID NO:97) was used for comparison. Cerepep phage achieved approximately 300-fold higher accumulation in mouse brain compared to control and Angiopep-2 phages (FIG. 2A; Peptide-phage accumulation in the brain. 5×10^9 pfu of phage was injected i.v. and following 1 h circulation mice were perfused with PBS. The amount of phage accumulated in the brain was determined by titering). To assess the brain distribution of […] (SEQ ID NO:9), the mouse brain was dissected to separate the olfactory bulbs, cerebellum, brain stem and the hemispheres before determining the titer in the tissue.
The brain selectivity of SRRVISRAKLAAAL (SEQ ID NO:9) phage following a systemic administration was studied in mice and rats by determining the titer of […] (SEQ ID NO:9) and control phage in multiple control tissues.

[2] = tested on: WT GBM cells; assay: Proximity labelling with peptide-HRP complex and mass spectrometry; type: cell-based, mouse; conditions: WT GBM and Neuro2A proximity labelling, mass spectrometry
Description: To assess the efficiency and specificity of proximity labelling, WT GBM cells were cultured in 24-well plates on polylysine coated glass coverslips until 80-90% confluency. Cerepep and horseradish peroxidase complex (CP-HRP) was prepared by conjugating biotinylated Cerepep to streptavidin-HRP. Control biotin-HRP complex was prepared by conjugating biotin to streptavidin-HRP. 4 μM CP-HRP or biot-HRP in DPBS was added to the cells and incubated at 37 °C for 1 h. The cells were washed with DPBS. 500 μM biotin-phenol (Iris Biotech #41994-02-9) in DPBS was added to the cells and incubated at 37 °C for 30 min. To start the reaction, H2O2 with the final concentration of 1 mM was added to the cells and incubated for 2 min at RT. The reaction was stopped by washing with 100 U/ml catalase in DPBS. Cells were fixed in 4% PFA and biotinylated proteins were detected with Streptavidin-Dylight 550 conjugate (1:500 in DPBS). Nuclei were stained with DAPI and the biotinylation of cells was analyzed with confocal microscopy.
To biotinylate the receptor of Cerepep peptide to be detected with mass spectrometry, the proximity labelling was performed on WT GBM and Neuro2A cells in suspension following the same protocol as with attached cells. […]
Biotin was detected with Streptavidin DyLight550. The WT GBM cells were analyzed with confocal microscopy. […]

[3] = tested on: P3 stem cells; assay: In vitro phage binding to cells; type: cell-based, human; conditions: 4 °C, 1 h, highest ratio
Description: To assess the binding of Cerepep phage, the cells were cultured in 24-well plates on polylysine coated glass coverslips until 80-90% confluency. The cells were incubated with Cerepep or control insertless peptide-phage at a final concentration of 5×10^7 pfu in 1 ml of DMEM+BSA (1%) at 4 °C for 1 h on a rocking platform. The wells were washed 4 times with 1 ml of DMEM+BSA (1%), the cells were lysed in 1 ml LB+NP40 and the amount of phage bound to the cells was determined by titering.
Binding of SRRVISRAKLAAAL (SEQ ID NO:9) phage to a panel of different cell lines was studied in vitro.

[4] = tested on: brain parenchyma; assay: Peptide-phage homing in vivo vs ex vivo; parameters: species or system mouse
[5] = tested on: VEGFko GBM; assay: Peptide-phage homing in glioma-bearing mice; type: in vivo, mouse; conditions: peptide-phage i.v., 1 h
Excerpt: (§1) Animal experimentation procedures were approved by the Estonian Ministry of Agriculture, Committee of Animal Experimentation, Project #48 and #159. Balb/c mice and Athymic nude mice (HD) were housed in a pathogen-free environment at the Animal Facility of the Institute of Biomedicine and Translational Medicine, University of Tartu (Tartu, Estonia). For induction of orthotopic GBM xenografts in nude mice, 7×10^5 (WT-GBM, VEGFko GBM) cells were implanted intracranially in the right striatum of the brain (ccordinates: 2 mm laterally and 2 mm posteriorly from bregma and at 2.5 mm depth). Intracranial tumors developed for 6-7 days (WT-GBM) and 12-14 days (VEGFko GBM) before performing experiments.
(§2) Homing of CVGTNCY (SEQ ID NO:2) was analyzed in angiogenic WT-GBM and infiltrative VEGFko GBM models. First, CVGTNCY (SEQ ID NO:2) peptide-phage homing was evaluated based on titer after systemic injection into the glioma-bearing mice and perfusion with PBS.

[6] = tested on: WT-GBM; assay: Peptide-phage homing in glioma-bearing mice; type: in vivo, mouse; conditions: peptide-phage i.v., 1 h
Excerpt: as §1, §2

| Substance | homing preference ([1]; mouse, in vivo) | accumulation in mouse brain, fold over Angiopep-2 phage ([1]; peptide-phage 5×10^9 pfu i.v., 1 h, vs Angiopep-2 phage) | accumulation in mouse brain, fold over control phage ([1]; peptide-phage 5×10^9 pfu i.v., 1 h, vs insertless control phage) | accumulation in the brain, shorter versions of Pep1 ([1]; peptide-phage 5×10^9 pfu i.v., 1 h circulation) | brain selectivity (titer in brain vs control tissues) ([1]; peptide-phage i.v., 1 h, mice) | accumulation in brain regions and spinal cord ([1]; peptide-phage i.v., 1 h, olfactory bulbs, cerebellum, brain stem, hemispheres, spinal cord, compared to control phage) | most probable receptor candidate [2] | binding of peptide-phage, fold over insertless phage [3] | brain homing in vivo after iv injection [4] | accumulation in VEGFko GBM compared to normal brain parenchyma [5] [times] | ratio of CVGTNCY over G7, normal brain vs GBM ([6]; WT-GBM and VEGFko GBM) | accumulation in WT-GBM compared to normal brain parenchyma [6] [times] |
| --- | --- | --- | --- | --- | --- | --- | --- | --- | --- | --- | --- | --- |
| SRRVISRAKLAAAL [Cerepep, SRRVISRAKLAAAL] | homes preferentially to the eyes/brain/CNS | approximately 300 fold | approximately 300 fold | shortest peptide still achieving a high accumulation in the brain | highest accumulation in the brain and low accumulation in all other tested tissues | high accumulation in all tested brain regions as well as in the spinal cord | LRP1 was considered the most probable candidate | at least 50 fold | – | – | – | – |
| CVGTNCY | – | – | – | – | – | – | – | – | homes to the brain parenchyma | 2 | higher in the normal brain parenchyma than in GBMs | 6 |
